The nature of the data set: recombinant barcode read abundance after kanamycin selection (control-corrected) (log10(CPM+1)); higher = more efficient recombination; sequences stand for … in AGTGCAGAGAAAATCGGCCAGTTTTCTCTGCCTGCAGTCCGCATGCCGT…AGATTTATGCAGCGGACTGCCTTTCTCCCAAAGTGATAAACCGGACAGTATCATGGACCGGTTTTCCCGGTAATCCGTATTTGCAAGGTTGGTTTCACT; site = the 11-nt target. In a few lines: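 In E. coli, a pooled library matched targets to IS621 bridge RNA target-binding loops and was introduced alongside a donor plasmid. Cells went onto chloramphenicol/ampicillin/kanamycin with 0.1 mM IPTG or onto chloramphenicol/ampicillin LB agar as control, in duplicate. Recombination efficiency, from recombinant-junction barcodes as counts per million, is averaged and control-corrected. It is reported as log10(CPM+1).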
As to “AGGCTGTCTTGGGTTCTAACCTGTTGCCT (site AGGCTGTCTAG)”, the “recombinant barcode read abundance (log10)” value was determined as 1.84.

On to “AGGGAAGCTTGGGTTCTAACCTGTTGCCT (site AGGGAAGCTAG)”, for which the “recombinant barcode read abundance (log10)” value stood at 0.879.

Turning to “AGGGAAGCTTGGGTTCTAACCTGTTGCCT (site AGGGCAGCTAG)”, the “recombinant barcode read abundance (log10)” value worked out at 0.385.

With “AGGGAAGCTTGGGTTCTAACCTGTTGCCT (site AGGGGAGCTAG)”, the “recombinant barcode read abundance (log10)” value was found to be 0.768.

As to “AGGGAAGCTTGGGTTCTAACCTGTTGCCT (site AGGGTAGCTAG)”, the “recombinant barcode read abundance (log10)” value is 0.391.

Consider “AGGGAATCTTGGGTTCTAACCTGTTGCCT (site AGAGAATCTAG)”, for which the “recombinant barcode read abundance (log10)” value worked out at 0.759.

As to “AGGGAATCTTGGGTTCTAACCTGTTGCCT (site AGCGAATCTAG)”, the “recombinant barcode read abundance (log10)” value stood at 0.124.

Consider “AGGGAATCTTGGGTTCTAACCTGTTGCCT (site AGGGAATCTAG)”, for which the “recombinant barcode read abundance (log10)” value came to 1.04.

As for “AGGGAATCTTGGGTTCTAACCTGTTGCCT (site AGTGAATCTAG)”, the “recombinant barcode read abundance (log10)” value was 0.182.

For the sequence “AGGGATACTTGGGTTCTAACCTGTTGCGT (site AGGGATACTAC)”, the “recombinant barcode read abundance (log10)” value stood at 3.32.

Take “AGGGATACTTGGGTTCTAACCTGTTGCGT (site ATGGATACTAC)”: the “recombinant barcode read abundance (log10)” value is 1.58.

Consider “AGGGATACTTGGGTTCTAACCTGTTGCTT (site AGGGAGACTAA)”, for which the “recombinant barcode read abundance (log10)” value was determined as 0.303.

As to “AGGGATACTTGGGTTCTAACCTGTTGCTT (site AGGGATACTAA)”, the “recombinant barcode read abundance (log10)” value worked out at 1.42.

Regarding “AGGGCATCTTGGGTTCTAACCTGTTGCCT (site AGGGCATCTAG)”, the “recombinant barcode read abundance (log10)” value turned out to be 0.122.

Turning to “AGGGCATCTTGGGTTCTAACCTGTTGCCT (site AGGGCGTCTCG)”, the “recombinant barcode read abundance (log10)” value turned out to be 0.245.

Take “AGGGTCGCTTGGGTTCTAACCTGTTGCCT (site AGGGTCGCTAG)”: the “recombinant barcode read abundance (log10)” value stood at 2.5.

As for “AGGGTCGCTTGGGTTCTAACCTGTTGCCT (site CACAGTCCTTA)”, the “recombinant barcode read abundance (log10)” value worked out at 0.344.

As to “AGGGTGCCTTGGGTTCTAACCTGTTGCTA (site AGGGTGCCTTA)”, the “recombinant barcode read abundance (log10)” value stood at 2.11.

Regarding “AGGGTGCCTTGGGTTCTAACCTGTTGCTA (site AGGGTGTCTCA)”, the “recombinant barcode read abundance (log10)” value came out at 0.106.

As for “AGGGTTCCTTGGGTTCTAACCTGTTGCTT (site AGGGTTCCTAA)”, the “recombinant barcode read abundance (log10)” value was 2.05.

Consider “AGGGTTCCTTGGGTTCTAACCTGTTGCTT (site TCATGGGCTCT)”, for which the “recombinant barcode read abundance (log10)” value worked out at 0.0235.

As for “AGGTAGACTTGGGTTCTAACCTGTTGCCA (site AGGAAGACTTG)”, the “recombinant barcode read abundance (log10)” value was determined as 0.0263.

As to “AGGTAGACTTGGGTTCTAACCTGTTGCCA (site AGGCAGACTTG)”, the “recombinant barcode read abundance (log10)” value was determined as 0.583.

In the case of “AGGTAGACTTGGGTTCTAACCTGTTGCCA (site AGGGAGACTTG)”, the “recombinant barcode read abundance (log10)” value was determined as 0.179.

Regarding “AGGTAGACTTGGGTTCTAACCTGTTGCCA (site AGGTAGACTTG)”, the “recombinant barcode read abundance (log10)” value amounted to 1.5.

In the case of “AGGTCACCTTGGGTTCTAACCTGTTGCGT (site AGGTCACCTAA)”, the “recombinant barcode read abundance (log10)” value is 0.276.

For “AGGTCACCTTGGGTTCTAACCTGTTGCGT (site AGGTCACCTAC)”, the “recombinant barcode read abundance (log10)” value worked out at 2.82.

Turning to “AGGTCACCTTGGGTTCTAACCTGTTGCGT (site AGGTCACCTAG)”, the “recombinant barcode read abundance (log10)” value was 0.536.

“AGGTCACCTTGGGTTCTAACCTGTTGCGT (site AGGTCACCTAT)”: the “recombinant barcode read abundance (log10)” value was 1.08.

With “AGGTCACCTTGGGTTCTAACCTGTTGCTT (site AGGTCACCTAA)”, the “recombinant barcode read abundance (log10)” value was 0.941.

As to “AGGTCACCTTGGGTTCTAACCTGTTGCTT (site AGGTCACCTAC)”, the “recombinant barcode read abundance (log10)” value came to 0.0772.

On to “AGGTCACCTTGGGTTCTAACCTGTTGCTT (site AGGTCACCTAG)”, for which the “recombinant barcode read abundance (log10)” value was 0.914.

As to “AGGTCACCTTGGGTTCTAACCTGTTGCTT (site AGGTCACCTAT)”, the “recombinant barcode read abundance (log10)” value worked out at 1.24.

Consider “AGGTCCTCTTGGGTTCTAACCTGTTGCGT (site AGGTCCTCTAA)”, for which the “recombinant barcode read abundance (log10)” value was 0.295.

Consider “AGGTCCTCTTGGGTTCTAACCTGTTGCGT (site AGGTCCTCTAC)”, for which the “recombinant barcode read abundance (log10)” value was 2.67.

As for “AGGTCCTCTTGGGTTCTAACCTGTTGCGT (site AGGTCCTCTAG)”, the “recombinant barcode read abundance (log10)” value was 0.73.

For “AGGTCCTCTTGGGTTCTAACCTGTTGCGT (site AGGTCCTCTAT)”, the “recombinant barcode read abundance (log10)” value was determined as 1.71.

In the case of “AGGTCTGCTTGGGTTCTAACCTGTTGCCT (site AGGTATGCTAG)”, the “recombinant barcode read abundance (log10)” value is 0.321.

Take “AGGTCTGCTTGGGTTCTAACCTGTTGCCT (site AGGTCTGCTAG)”: the “recombinant barcode read abundance (log10)” value turned out to be 0.58.

For the sequence “AGGTCTGCTTGGGTTCTAACCTGTTGCCT (site AGGTGTGCTAG)”, the “recombinant barcode read abundance (log10)” value came to 0.12.

Regarding “AGGTCTGCTTGGGTTCTAACCTGTTGCCT (site AGGTTTGCTAG)”, the “recombinant barcode read abundance (log10)” value turned out to be 0.0282.

For the sequence “AGGTGTGCTTGGGTTCTAACCTGTTGCCT (site AGGTATGCTAG)”, the “recombinant barcode read abundance (log10)” value came out at 0.289.

Regarding “AGGTGTGCTTGGGTTCTAACCTGTTGCCT (site AGGTCTGCTAG)”, the “recombinant barcode read abundance (log10)” value is 0.123.

On to “AGGTGTGCTTGGGTTCTAACCTGTTGCCT (site AGGTGTGCTAG)”, for which the “recombinant barcode read abundance (log10)” value amounted to 1.19.

On to “AGGTGTGCTTGGGTTCTAACCTGTTGCCT (site AGGTTTGCTAG)”, for which the “recombinant barcode read abundance (log10)” value was 0.502.

As for “AGGTTCCCTTGGGTTCTAACCTGTTGCTA (site AGGTTCCCTAA)”, the “recombinant barcode read abundance (log10)” value was found to be 0.0211.

Consider “AGGTTCCCTTGGGTTCTAACCTGTTGCTA (site AGGTTCCCTCA)”, for which the “recombinant barcode read abundance (log10)” value was 0.0107.

For the sequence “AGGTTCCCTTGGGTTCTAACCTGTTGCTA (site AGGTTCCCTGA)”, the “recombinant barcode read abundance (log10)” value was 0.0194.

For the sequence “AGGTTCCCTTGGGTTCTAACCTGTTGCTA (site AGGTTCCCTTA)”, the “recombinant barcode read abundance (log10)” value worked out at 1.32.

On to “AGGTTCCCTTGGGTTCTAACCTGTTGCTT (site AGGTTCCCTAA)”, for which the “recombinant barcode read abundance (log10)” value amounted to 1.41.

For the sequence “AGGTTCCCTTGGGTTCTAACCTGTTGCTT (site AGGTTCCCTCA)”, the “recombinant barcode read abundance (log10)” value came to 0.0899.

“AGGTTCCCTTGGGTTCTAACCTGTTGCTT (site AGGTTCCCTGA)”: the “recombinant barcode read abundance (log10)” value was 0.621.

Regarding “AGGTTCCCTTGGGTTCTAACCTGTTGCTT (site AGGTTCCCTTA)”, the “recombinant barcode read abundance (log10)” value worked out at 0.183.

Consider “AGGTTTGCTTGGGTTCTAACCTGTTGCCT (site AGGTATGCTAG)”, for which the “recombinant barcode read abundance (log10)” value came out at 0.168.

For “AGGTTTGCTTGGGTTCTAACCTGTTGCCT (site AGGTCTGCTAG)”, the “recombinant barcode read abundance (log10)” value turned out to be 0.471.

Consider “AGGTTTGCTTGGGTTCTAACCTGTTGCCT (site AGGTGTGCTAG)”, for which the “recombinant barcode read abundance (log10)” value came out at 0.018.

With “AGGTTTGCTTGGGTTCTAACCTGTTGCCT (site AGGTTTGCTAG)”, the “recombinant barcode read abundance (log10)” value was 0.0479.

Consider “AGGTTTGCTTGGGTTCTAACCTGTTGCTT (site AGGTTTGCTAA)”, for which the “recombinant barcode read abundance (log10)” value is 0.00886.

On to “AGGTTTGCTTGGGTTCTAACCTGTTGCTT (site GTCACAACTCG)”, for which the “recombinant barcode read abundance (log10)” value came out at 0.101.

In the case of “AGTACGCCTTGGGTTCTAACCTGTTGCCT (site AGTACGCCTAG)”, the “recombinant barcode read abundance (log10)” value stood at 0.0474.

Take “AGTACGCCTTGGGTTCTAACCTGTTGCCT (site TGAACGCCTAG)”: the “recombinant barcode read abundance (log10)” value came out at 0.07.

Turning to “AGTAGAACTTGGGTTCTAACCTGTTGCCT (site AGTAGAACTAG)”, the “recombinant barcode read abundance (log10)” value was found to be 0.387.

In the case of “AGTAGAACTTGGGTTCTAACCTGTTGCCT (site CGTAGAGCTAG)”, the “recombinant barcode read abundance (log10)” value turned out to be 0.172.

“AGTAGGACTTGGGTTCTAACCTGTTGCCT (site AGTAGGACTAG)”: the “recombinant barcode read abundance (log10)” value came to 0.242.

Regarding “AGTAGGACTTGGGTTCTAACCTGTTGCCT (site CGTAGGACTAG)”, the “recombinant barcode read abundance (log10)” value is 0.

As for “AGTAGGACTTGGGTTCTAACCTGTTGCCT (site GGTAGGACTAG)”, the “recombinant barcode read abundance (log10)” value was found to be 0.0674.

Consider “AGTAGGACTTGGGTTCTAACCTGTTGCCT (site TGTAGGACTAG)”, for which the “recombinant barcode read abundance (log10)” value is 0.213.

As to “AGTAGTTCTTGGGTTCTAACCTGTTGCAG (site AGTAGTTCTCT)”, the “recombinant barcode read abundance (log10)” value came out at 0.683.

For “AGTAGTTCTTGGGTTCTAACCTGTTGCAG (site CTCGTAGCTAG)”, the “recombinant barcode read abundance (log10)” value was determined as 0.104.

Regarding “AGTCAAACTTGGGTTCTAACCTGTTGCCT (site AGTCAAACTAG)”, the “recombinant barcode read abundance (log10)” value stood at 0.157.

Regarding “AGTCAAACTTGGGTTCTAACCTGTTGCCT (site AGTCATACTAG)”, the “recombinant barcode read abundance (log10)” value was determined as 0.141.

As for “AGTCACACTTGGGTTCTAACCTGTTGCTA (site AGTCACACTCA)”, the “recombinant barcode read abundance (log10)” value turned out to be 0.179.

Consider “AGTCACACTTGGGTTCTAACCTGTTGCTA (site AGTCACACTTA)”, for which the “recombinant barcode read abundance (log10)” value came out at 1.48.

As to “AGTCAGTCTTGGGTTCTAACCTGTTGCGT (site AGTCAGTCTAC)”, the “recombinant barcode read abundance (log10)” value stood at 2.33.

On to “AGTCAGTCTTGGGTTCTAACCTGTTGCGT (site AGTCATTCTAT)”, for which the “recombinant barcode read abundance (log10)” value stood at 0.0526.

In the case of “AGTCATACTTGGGTTCTAACCTGTTGCCT (site AGTCAAACTAG)”, the “recombinant barcode read abundance (log10)” value is 0.

On to “AGTCATACTTGGGTTCTAACCTGTTGCCT (site AGTCATACTAG)”, for which the “recombinant barcode read abundance (log10)” value was determined as 0.232.

The values are drawn from the supplement of paper PMC11208160.
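Note: IS621 recombinase and bridge RNA in Escherichia coli cells.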
